Laboratory results from patent US9993494B2, “Compositions and methods for treating fibrotic disease” (eFFECTOR Therapeutics, Inc., priority 2014, dated 2018).

System: normal human lung fibroblasts
Experiment: Ribosomal profiling: translational efficiency in TGFβ-treated fibroblasts
Type: cell-based
Protocol: Ribosomal profiling allows for measurement of changes in transcription and translation on a genome-wide basis accompanying TGFβ-dependent transformation of fibroblasts to myofibroblasts. Ribosomal profiles of the TGFβ-treated fibroblasts from Example 1 (about 6×10^6 cells/10 cm plate) were prepared and analyzed for changes in translational efficiencies with respect to potential disease-associated cellular changes accompanying this TGFβ-induced transformation.
Briefly, cells were washed with cold PBS supplemented with cycloheximide and lysed with 1× mammalian cell lysis buffer for 10 minutes on ice. Lysates were clarified by centrifugation for 10 minutes at 14,000 rpm and supernatants were collected. Cell lysates were processed to generate ribosomal protected fragments and total mRNA according to the instructions included with the ARTseq Ribosome Profiling Kit (Illumina, San Diego, Calif.). Sequencing of total RNA (RNA) and of ribosome-protected fragments of RNA (RPF) was carried out using RNA-Seq methodology according to the manufacturer's instructions (Illumina). To analyze the ribosomal profiles, RNA-Seq reads were processed with tools from the FASTX-Toolkit (fastq_quality_trimmer, fastx_clipper and fastx_trimmer). Unprocessed and processed reads were evaluated for a variety of quality measures using FastQC, and processed reads were mapped to the human genome using TopHat (see, e.g., Trapnell et al., Bioinformatics 25:1105, 2009). Gene-by-gene assessment of the number of fragments strictly and uniquely mapping to the coding region of each gene was conducted using HTSeq-count, a component of the HTSeq package. […] Genes with low counts in either RPF or RNA were excluded from differential analyses. Pathway and network analyses of differential data were conducted using Ingenuity Pathway Analysis (IPA).

TGFβ was tested, and the “Log2 TE FANCL” value (ENSG00000115392, 5 replicates) was −1.233, the “Log2 TE IL1R1” value (ENSG00000115594, 5 replicates) was −1.003 and the “Log2 TE PIK3R3” value (ENSG00000117461, 5 replicates) was −1.0571. The “Log2 TE DPH5” value (ENSG00000117543, 5 replicates) was 1.114, the “change in translational profile of DPH5 caused by TGFβ” value (ENSG00000117543, Control vs. TGFβ) was “D (D = <1.0 to 1.5)” and the “Log2 TE CENPF” value (ENSG00000117724, 5 replicates) was −1.237. The “Log2 TE RPS25” value (ENSG00000118181, 5 replicates) was 1.697, the “Log2 TE SGIP1” value (ENSG00000118473, 5 replicates) was −2.768 and the “Log2 TE PPL” value (ENSG00000118898, 5 replicates) was −1.54. For the same substance, the “change in translational profile of PPL caused by TGFβ” value (ENSG00000118898, Control vs. TGFβ) was “B (B = <−1.5 to −2.5)”, the “Log2 TE NR4A3” value (ENSG00000119508, 5 replicates) was −1.931 and the “Log2 TE TEK” value (ENSG00000120156, 5 replicates) was −1.652. For the same substance, the “change in translational profile of PLEKHG1 caused by TGFβ” value (ENSG00000120278, Control vs. TGFβ) was “B (B = <−1.5 to −2.5)”, the “change in translational profile of LIAS caused by TGFβ” value (ENSG00000121897, Control vs. TGFβ) was “D (D = <1.0 to 1.5)” and the “Log2 TE GPSM2” value (ENSG00000121957, 5 replicates) was −1.408. For the same substance, the “change in translational profile of GPSM2 caused by TGFβ” value (ENSG00000121957, Control vs. TGFβ) was “B (B = <−1.5 to −2.5)”, the “change in translational profile of RPL21 caused by TGFβ” value (ENSG00000122026, Control vs. TGFβ) was “E (E = <1.5 to 2.5)” and the “Log2 TE RPL5” value (ENSG00000122406, 5 replicates) was 1.593. The “change in translational profile of RPL5 caused by TGFβ” value (ENSG00000122406, Control vs. TGFβ) was “E (E = <1.5 to 2.5)”, the “change in translational profile of INHBA caused by TGFβ” value (ENSG00000122641, Control vs. TGFβ) was “D (D = <1.0 to 1.5)” and the “Log2 TE CIT” value (ENSG00000122966, 5 replicates) was −3.084. The “change in translational profile of CIT caused by TGFβ” value (ENSG00000122966, Control vs. TGFβ) was “A (A = <−2.5)”, the “Log2 TE ATP8A1” value (ENSG00000124406, 5 replicates) was −2.122 and the “Log2 TE TRERF1” value (ENSG00000124496, 5 replicates) was −1.891. The “Log2 TE RPS10” value (ENSG00000124614, 5 replicates) was 1.211, the “Log2 TE COL21A1” value (ENSG00000124749, 5 replicates) was −1.445 and the “Log2 TE ATP5S” value (ENSG00000125375, 5 replicates) was 1.075. The “Log2 TE RPL23” value (ENSG00000125691, 5 replicates) was 1.604, the “change in translational profile of RPL23 caused by TGFβ” value (ENSG00000125691, Control vs. TGFβ) was “E (E = <1.5 to 2.5)” and the “Log2 TE RTN2” value (ENSG00000125744, 5 replicates) was −1.143. The “Log2 TE LAMP5” value (ENSG00000125869, 5 replicates) was 1.298, the “change in translational profile of LAMP5 caused by TGFβ” value (ENSG00000125869, Control vs. TGFβ) was “E (E = <1.5 to 2.5)” and the “Log2 TE NECAB3” value (ENSG00000125967, 5 replicates) was 1.403. The “change in translational profile of NECAB3 caused by TGFβ” value (ENSG00000125967, Control vs. TGFβ) was “E (E = <1.5 to 2.5)”, the “change in translational profile of COX7C caused by TGFβ” value (ENSG00000127184, Control vs. TGFβ) was “D (D = <1.0 to 1.5)” and the “Log2 TE TNFRSF19” value (ENSG00000127863, 5 replicates) was −1.093. The “Log2 TE ZFP36” value (ENSG00000128016, 5 replicates) was 1.188, the “change in translational profile of LIF caused by TGFβ” value (ENSG00000128342, Control vs. TGFβ) was “D (D = <1.0 to 1.5)” and the “Log2 TE APOBEC3F” value (ENSG00000128394, 5 replicates) was −1.127. For the same substance, the “Log2 TE SMO” value (ENSG00000128602, 5 replicates) was −1.254, the “Log2 TE CGNL1” value (ENSG00000128849, 5 replicates) was −1.023 and the “Log2 TE CD68” value (ENSG00000129226, 5 replicates) was 1.048. The “Log2 TE MTUS1” value (ENSG00000129422, 5 replicates) was −1.149, the “change in translational profile of MTUS1 caused by TGFβ” value (ENSG00000129422, Control vs. TGFβ) was “B (B = <−1.5 to −2.5)” and the “Log2 TE ARHGEF6” value (ENSG00000129675, 5 replicates) was −1.1. The “change in translational profile of ARHGEF6 caused by TGFβ” value (ENSG00000129675, Control vs. TGFβ) was “C (C = <−1.0 to −1.5)”, the “Log2 TE RPL36” value (ENSG00000130255, 5 replicates) was 1.411 and the “change in translational profile of RPL36 caused by TGFβ” value (ENSG00000130255, Control vs. TGFβ) was “E (E = <1.5 to 2.5)”. For the same substance, the “change in translational profile of GDF15 caused by TGFβ” value (ENSG00000130513, Control vs. TGFβ) was “D (D = <1.0 to 1.5)”, the “change in translational profile of ASS1 caused by TGFβ” value (ENSG00000130707, Control vs. TGFβ) was “D (D = <1.0 to 1.5)” and the “Log2 TE EIF2S3” value (ENSG00000130741, 5 replicates) was 1.067. The “change in translational profile of EIF2S3 caused by TGFβ” value (ENSG00000130741, Control vs. TGFβ) was “D (D = <1.0 to 1.5)”, the “Log2 TE RPL27” value (ENSG00000131469, 5 replicates) was 1.519 and the “change in translational profile of RPL27 caused by TGFβ” value (ENSG00000131469, Control vs. TGFβ) was “E (E = <1.5 to 2.5)”. The “Log2 TE TOP2A” value (ENSG00000131747, 5 replicates) was −1.314, the “Log2 TE MATN3” value (ENSG00000132031, 5 replicates) was 1.34 and the “change in translational profile of MATN3 caused by TGFβ” value (ENSG00000132031, Control vs. TGFβ) was “D (D = <1.0 to 1.5)”. For the same substance, the “Log2 TE SPATA6” value (ENSG00000132122, 5 replicates) was −1.925 and the “Log2 TE PPARG” value (ENSG00000132170, 5 replicates) was −3.52.
